Reference: patent US11236047B2 (ASTEX THERAPEUTICS LIMITED, priority 2017, dated 2022)
Like-named read-outs stand apart in the source and are kept apart here. Each block holds one compound with its values, some of them ahead of it.

Legend:
[1] = biological target: MDM2-p53 interaction (Homo sapiens (Human), UniProt Q00987); conditions: for inhibition at 0.1 µM: read-out: MDM2 % inhibition @0.10; for inhibition at 0.001 µM: read-out: MDM2 % inhibition @0.0010
[2] = test system: SN40R2 cells; experiment: Protocol B: SN40R2 CellTiter-Glo luminescent cell viability assay; conditions: for inhibition at 10 µM: read-out: SN40R2 % inhibition at 10
[3] = test system: SJSA-1 cells; experiment: Protocol B: SJSA-1 CellTiter-Glo luminescent cell viability assay
[4] = read-out: SJSA1 IC50, Protocol B, SJSA-1
[5] = Homo sapiens, SJSA-1, read-out: SJSA1 IC50 (μM), Protocol B, SJSA-1

Sequence of MDM2-p53 interaction (Q00987 whole entry): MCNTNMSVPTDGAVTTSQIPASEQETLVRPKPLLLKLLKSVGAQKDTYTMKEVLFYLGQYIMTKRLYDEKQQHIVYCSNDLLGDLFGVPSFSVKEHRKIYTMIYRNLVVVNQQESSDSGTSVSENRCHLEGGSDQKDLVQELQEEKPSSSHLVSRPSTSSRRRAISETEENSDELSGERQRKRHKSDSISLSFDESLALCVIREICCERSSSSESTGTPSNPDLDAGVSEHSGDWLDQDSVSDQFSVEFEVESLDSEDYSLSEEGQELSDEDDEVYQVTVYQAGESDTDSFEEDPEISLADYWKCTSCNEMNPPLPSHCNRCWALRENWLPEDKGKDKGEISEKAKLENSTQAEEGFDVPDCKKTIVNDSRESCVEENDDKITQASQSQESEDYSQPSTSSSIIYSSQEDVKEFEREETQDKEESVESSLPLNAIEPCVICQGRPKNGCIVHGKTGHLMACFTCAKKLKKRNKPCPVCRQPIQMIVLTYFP

inhibition at 0.1 µM [1]: 44%
Compound: CCCC(O)(c1cc(F)c2c(c1)C(=O)N(Cc1ccc(C#N)cn1)[C@@]2(O[C@H]1CCOC1)c1ccc(Cl)cc1)c1cn(C)cn1 (stereo partly drawn) [Example 473, 6-{[(1R)-1-(4-chlorophenyl)-7-fluoro-5-[1-hydroxy-1-(1-methyl-1H-imidazol-4-yl)butyl]-3-oxo-1-[(3S)-oxolan-3-yloxy]-2,3-dihydro-1H-isoindol-2-yl]methyl}pyridine-3-carbonitrile]

Compound: CCC(O)(c1cc(F)c2c(c1)C(=O)N(Cc1ncc(Cl)cc1O)[C@@]2(O[C@H]1C[C@@H](O)C1)c1ccc(Cl)cc1)c1cn(C)cn1 (stereo partly drawn) [Example 488, (3R)-2-[(5-chloro-3-hydroxypyridin-2-yl)methyl]-3-(4-chlorophenyl)-4-fluoro-6-[1-hydroxy-1-(1-methyl-1H-imidazol-4-yl)propyl]-3-[cis-3-hydroxycyclobutoxy]-2,3-dihydro-1H-isoindol-1-one]
inhibition at 0.1 µM [1]: 56%

inhibition at 0.001 µM [1]: 68%
Compound: CCC(O)(c1cc(F)c2c(c1)C(=O)N(Cc1ccc(C#N)cn1)[C@@]2(OCCO)c1ccc(Cl)cc1)C1(F)CCOCC1 (single isomer, unassigned) [Example 499]

inhibition at 0.001 µM [1]: 83%
Compound: CCC(O)(c1cc(F)c2c(c1)C(=O)N(Cc1ccc(C#N)cn1)[C@@]2(OC[C@@H](C)O)c1ccc(Cl)cc1)C1(F)CCOCC1 (single isomer, unassigned) [Example 497]

MDM2 % at stated concentration ([1]; at 1.0 μM): 53%@1.0
Compound: CO[C@]1(c2ccc(Cl)cc2)c2ccc(C(C)(O)C(=O)NCCN(C)C)cc2C(=O)N1Cc1ccc(Cl)cn1 (single isomer, unassigned) [Example 149]

Compound: CCC(O)(c1cc(F)c2c(c1)C(=O)N(Cc1ncc(C#N)cn1)[C@@]2(O[C@H]1CCOC1)c1ccc(Cl)cc1)c1ccn(C)n1 (stereo partly drawn) [Example 490, 2-{[(1R)-1-(4-chlorophenyl)-7-fluoro-5-[1-hydroxy-1-(1-methyl-1H-pyrazol-3-yl)propyl]-3-oxo-1-[(3S)-oxolan-3-yloxy]-2,3-dihydro-1H-isoindol-2-yl]methyl}pyrimidine-5-carbonitrile]
inhibition at 10 µM [2]: 0% | IC50 [3, 4]: 0.27 µM

Compound: CCC(O)(CN1CCN(C)CC1)c1cc(F)c2c(c1)C(=O)N(Cc1ncc(Cl)cn1)[C@@]2(OCC1(C#N)CC1)c1ccc(Cl)cc1 (single isomer, unassigned) [Example 534]
inhibition at 10 µM [2]: 44% | IC50 [3, 4]: 0.7 µM

MDM2 % at stated concentration [1]: 75%@0.0010
Compound: CC(=O)N1CCC(C(C)(O)c2cc(F)c3c(c2)C(=O)N(Cc2ccc(Cl)cn2)[C@@]3(OCC2(C#N)CC2)c2ccc(Cl)cc2)CC1 (single isomer, unassigned) [Example 301]

Compound: CC[C@@](O)(c1cc(F)c2c(c1)C(=O)N(Cc1ncc(C#N)cn1)[C@@]2(OCCO)c1ccc(Cl)cc1)C1(F)CCOCC1 [Example 509, 2-{[(1R)-1-(4-chlorophenyl)-7-fluoro-5-[(1R)-1-(4-fluorooxan-4-yl)-1-hydroxypropyl]-1-(2-hydroxyethoxy)-3-oxo-2,3-dihydro-1H-isoindol-2-yl]methyl}pyrimidine-5-carbonitrile]
inhibition at 10 µM [2]: 6% | IC50 [3, 5]: 0.042 µM

inhibition at 0.01 µM ([1]; read-out: MDM2 % inhibition @0.010): 44%
Compound: CO[C@]1(c2ccc(Cl)cc2)c2c(F)cc(C(C)(O)c3cnn(C4CN(C(=O)OC(C)(C)C)C4)c3)cc2C(=O)N1Cc1ccc(Cl)cn1 (single isomer, unassigned) [Example 458]

inhibition at 0.1 µM [1]: 65%
Compound: CCC(O)(c1cc(F)c2c(c1)C(=O)N(Cc1ccc(C#N)cn1)[C@@]2(OCCOC)c1ccc(Cl)cc1)c1cn(C)cn1 (stereo partly drawn) [Example 429, 6-{[(1R)-1-(4-chlorophenyl)-7-fluoro-5-[1-hydroxy-1-(1-methyl-1H-imidazol-4-yl)propyl]-1-(2-methoxyethoxy)-3-oxo-2,3-dihydro-1H-isoindol-2-yl]methyl}pyridine-3-carbonitrile]

Compound: Cn1cnc(C(C)(O)c2cc(F)c3c(c2)C(=O)N(Cc2ncc(C#N)cn2)[C@@]3(OCC2(F)COC2)c2ccc(Cl)cc2)c1 (stereo partly drawn) [Example 468, 2-{[(1R)-1-(4-chlorophenyl)-7-fluoro-1-[(3-fluorooxetan-3-yl)methoxy]-5-[1-hydroxy-1-(1-methyl-1H-imidazol-4-yl)ethyl]-3-oxo-2,3-dihydro-1H-isoindol-2-yl]methyl}pyrimidine-5-carbonitrile]
inhibition at 10 µM [2]: 2% | IC50 [3, 5]: 0.48 µM

Compound: [2H]C([2H])(O)C1(C([2H])([2H])O[C@]2(c3ccc(Cl)cc3)c3c(F)cc(C(C)(O)CC)cc3C(=O)N2Cc2ncc(C#N)cn2)CC1 (single isomer, unassigned) [Example 576]
inhibition at 10 µM [2]: 5% | IC50 [3, 5]: 0.14 µM

inhibition at 0.1 µM [1]: 73%
Compound: CCC(O)(c1cc(F)c2c(c1)C(=O)N(Cc1ncc(C#N)cn1)[C@@]2(OCC1(C#N)CC1)c1ccc(Cl)cc1)c1cn(C)cn1 (stereo partly drawn) [Example 463, 2-{[(1R)-1-(4-chlorophenyl)-1-[(1-cyanocyclopropyl)methoxy]-7-fluoro-5-[1-hydroxy-1-(1-methyl-1H-imidazol-4-yl)propyl]-3-oxo-2,3-dihydro-1H-isoindol-2-yl]methyl}pyrimidine-5-carbonitrile]

MDM2 % at stated concentration ([1]; at 0.030 μM): 50%@0.030
Compound: CC(C)(O)c1cc(F)c2c(c1)C(=O)N(Cc1ccc(Cl)cn1)[C@@]2(OCC1(CNCCO)CC1)c1ccc(Cl)cc1 [Example 326, (3R)-3-(4-chlorophenyl)-2-[(5-chloropyridin-2-yl)methyl]-4-fluoro-3-[(1-{[(2-hydroxyethyl)amino]methyl}cyclopropyl)methoxy]-6-(2-hydroxypropan-2-yl)-2,3-dihydro-1H-isoindol-1-one]

Compound: CC(O)(c1cc(F)c2c(c1)C(=O)N(Cc1ncc(Cl)cn1)[C@@]2(OCCO)c1ccc(Cl)cc1)C1(F)CCOCC1 (stereo partly drawn) [Example 578, (3R)-3-(4-chlorophenyl)-2-[(5-chloropyrimidin-2-yl)methyl]-4-fluoro-6-[1-(4-fluorooxan-4-yl)-1-hydroxyethyl]-3-(2-hydroxyethoxy)-2,3-dihydro-1H-isoindol-1-one]
inhibition at 10 µM [2]: 4% | IC50 [3, 5]: 0.12 µM

Compound: CCC(O)(c1cc(F)c2c(c1)C(=O)N(Cc1ncc(C#N)cn1)[C@@]2(OCC1(F)COC1)c1ccc(Cl)cc1)c1cn(C)cn1 (stereo partly drawn) [Example 470, 2-{[(1R)-1-(4-chlorophenyl)-7-fluoro-1-[(3-fluorooxetan-3-yl)methoxy]-5-[1-hydroxy-1-(1-methyl-1H-imidazol-4-yl)propyl]-3-oxo-2,3-dihydro-1H-isoindol-2-yl]methyl}pyrimidine-5-carbonitrile]
inhibition at 10 µM [2]: 3% | IC50 [3, 4]: 0.1 µM

MDM2 % at stated concentration ([1]; at 0.10 μM): 49%@0.10
Compound: CO[C@]1(c2ccc(Cl)cc2)c2ccc(C(C)(O)C(=O)NCCN(C)C)cc2C(=O)N1Cc1ccc(Cl)cn1 (single isomer, unassigned) [Example 150]

Compound: CCC(O)(c1cc(F)c2c(c1)C(=O)N(Cc1ccc(C#N)cn1)[C@@]2(OCC1(CO)CC1)c1ccc(Cl)cc1)c1cn(C)cn1 (single isomer, unassigned) [Example 338]
inhibition at 10 µM [2]: 6% | IC50 [3, 4]: 1.5 µM

inhibition at 0.3 µM ([1]; read-out: MDM2 % inhibition @0.30): 53%
Compound: CO[C@]1(c2ccc(Cl)cc2)c2c(F)cc(C(C)(O)c3cnn(C4CN(C(=O)OC(C)(C)C)C4)c3)cc2C(=O)N1Cc1ccc(Cl)cn1 (stereo partly drawn) [Example 457, tert-Butyl 3-(4-{1-[(1R)-1-(4-chlorophenyl)-2-[(5-chloropyridin-2-yl)methyl]-7-fluoro-1-methoxy-3-oxo-2,3-dihydro-1H-isoindol-5-yl]-1-hydroxyethyl}-1H-pyrazol-1-yl)azetidine-1-carboxylate]

Compound: CC(O)(c1cc(F)c2c(c1)C(=O)N(Cc1ncc(Cl)cn1)[C@@]2(OCC1(CO)CC1)c1ccc(Cl)cc1)[C@H]1CC[C@H](O)CC1 (stereo partly drawn) [Example 401, (3R)-3-(4-chlorophenyl)-2-[(5-chloropyrimidin-2-yl)methyl]-4-fluoro-6-{1-hydroxy-1-[trans-4-hydroxycyclohexyl]ethyl}-3-{[1-(hydroxymethyl)cyclopropyl]methoxy}-2,3-dihydro-1H-isoindol-1-one]
inhibition at 10 µM [2]: 6% | IC50 [3, 4]: 0.0098 µM

Compound: CC[C@@](O)(c1cc(F)c2c(c1)C(=O)N(Cc1ncc(Cl)cn1)[C@@]2(OCCO)c1ccc(Cl)cc1)C1(F)CCOCC1 [Example 501, (3R)-3-(4-chlorophenyl)-2-[(5-chloropyrimidin-2-yl)methyl]-4-fluoro-6-[(1R)-1-(4-fluorooxan-4-yl)-1-hydroxypropyl]-3-(2-hydroxyethoxy)-2,3-dihydro-1H-isoindol-1-one]
inhibition at 3 µM ([2]; read-out: SN40R2 % inhibition at 3): 8% | IC50 [3, 5]: 0.022 µM

Compound: [2H]C([2H])(O)C1(C([2H])([2H])O[C@]2(c3ccc(Cl)cc3)c3c(F)cc(C(O)(CC)c4cn(C)cn4)cc3C(=O)N2Cc2ccc(C#N)cn2)CC1 (stereo partly drawn) [Example 439, 6-{[(1R)-1-(4-chlorophenyl)-7-fluoro-1-({1-[hydroxy(^2H2)methyl]cyclopropyl}(^2H2)methoxy)-5-[1-hydroxy-1-(1-methyl-1H-imidazol-4-yl)propyl]-3-oxo-2,3-dihydro-1H-isoindol-2-yl]methyl}pyridine-3-carbonitrile]
inhibition at 10 µM [2]: 3% | IC50 [3, 4]: 0.03 µM

Compound: CO[C@]1(c2ccc(Cl)cc2)c2c(F)cc(C(C)(O)c3cn(C)c(C)n3)cc2C(=O)N1Cc1ccc(Cl)cn1 (stereo partly drawn) [Example 162, (3R)-3-(4-Chlorophenyl)-2-[(5-chloropyridin-2-yl)methyl]-6-[1-(1,2-dimethyl-1H-imidazol-4-yl)-1-hydroxyethyl]-4-fluoro-3-methoxy-2,3-dihydro-1H-isoindol-1-one]
IC50 ([2]; read-out: SN40R2 IC50 (μM) (Protocol B)): 13 µM | IC50 ([3]; read-out: SJSA1 IC50 (μM) (Protocol B), SJSA-1, Protocol B): 0.22 µM

Compound: CCC(O)(CN1CCN(C)CC1)c1cc(F)c2c(c1)C(=O)N(Cc1ncc(Cl)cn1)[C@@]2(O[C@H]1CCOC1)c1ccc(Cl)cc1 (single isomer, unassigned) [Example 522]
inhibition at 10 µM [2]: 24% | IC50 [3, 4]: 0.048 µM
